The target of this test is T1, PRMT5/MEP50 (Homo sapiens, UniProt O14744).
T1 construct: Expressed full-length human Flag-PRMT5/6His-MeP50 protein complex was purified; made in house; host or cells: Spodoptera frugiperda (SF9) insect cells, baculovirus (pDEST8)
The test can be described thus: PRMT5 Biochemical Assay (PRMT5/MEP50 enzyme assay on peptide substrate, 3H-SAM Flashplate).

The mark [1] stands for this setting: Table A-2, PRMT5/MEP50 4 nM, 3H-SAM 75 nM, peptide 40 nM, read-out: Biochemical IC50.

Structures are written as SMILES. Where two headings read alike, the source gives them in different places. Bounds are passed on as bounds.

T1 sequence (O14744 with tags, fused parts or gaps): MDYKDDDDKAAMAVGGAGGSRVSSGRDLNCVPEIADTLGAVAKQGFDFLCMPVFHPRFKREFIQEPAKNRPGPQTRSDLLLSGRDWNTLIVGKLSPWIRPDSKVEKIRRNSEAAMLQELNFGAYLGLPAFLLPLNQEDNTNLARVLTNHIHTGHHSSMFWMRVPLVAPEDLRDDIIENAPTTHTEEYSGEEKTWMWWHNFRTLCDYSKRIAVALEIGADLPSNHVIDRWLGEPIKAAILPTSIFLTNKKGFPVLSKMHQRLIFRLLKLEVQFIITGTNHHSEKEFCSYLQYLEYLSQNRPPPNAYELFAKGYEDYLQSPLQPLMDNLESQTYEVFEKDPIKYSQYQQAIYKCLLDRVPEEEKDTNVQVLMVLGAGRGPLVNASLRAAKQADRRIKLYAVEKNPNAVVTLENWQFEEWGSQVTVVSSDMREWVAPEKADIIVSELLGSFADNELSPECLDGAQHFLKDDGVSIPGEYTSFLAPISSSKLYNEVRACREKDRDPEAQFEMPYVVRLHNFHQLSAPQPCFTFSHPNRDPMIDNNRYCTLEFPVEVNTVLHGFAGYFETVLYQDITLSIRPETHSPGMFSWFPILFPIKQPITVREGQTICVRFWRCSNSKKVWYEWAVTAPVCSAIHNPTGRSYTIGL
T1 sequence (Q9BQA1 with tags, fused parts or gaps partner limits assumed): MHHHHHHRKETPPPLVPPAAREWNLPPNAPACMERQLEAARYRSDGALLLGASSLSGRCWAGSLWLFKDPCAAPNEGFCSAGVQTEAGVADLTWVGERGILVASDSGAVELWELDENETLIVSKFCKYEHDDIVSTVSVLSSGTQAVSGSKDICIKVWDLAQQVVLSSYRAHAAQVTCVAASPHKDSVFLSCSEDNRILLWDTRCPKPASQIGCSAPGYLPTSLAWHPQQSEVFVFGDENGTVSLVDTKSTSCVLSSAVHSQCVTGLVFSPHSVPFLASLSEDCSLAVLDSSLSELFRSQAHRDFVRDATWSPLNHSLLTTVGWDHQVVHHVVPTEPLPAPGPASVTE

As to `O=C(COc1ccc2ncn(C3CCNCC3)c2c1)NCC(O)CN1CCc2ccccc2C1` (centres unmarked) [Compound A70], under setting [1], the IC50 was below 100 nM.
Still for that read-out and setting: in the case of `O=C(COc1ccccc1F)NCC(O)CN1CCc2ccccc2C1` (centres unmarked) [Compound A16] it was 101 to 1000 nM; in that of `CC(Oc1ccccc1S(C)(=O)=O)C(=O)NCC(O)CN1CCc2ccccc2C1` (centres unmarked) [Compound A114], 101 to 1000 nM.
As to `CN(C)S(=O)(=O)c1ccccc1OCC(=O)NCC(O)CN1CCc2ccccc2C1` (centres unmarked) [Compound A109], the IC50 under setting [1] was below 100 nM.
Turning to `CN(C)c1ccc2cccc(OCC(=O)NC[C@H](O)CN3CCc4ccccc4C3)c2n1` [Compound A104], under setting [1], the IC50 fell in the range of 101 to 1000 nM.
Take `CN1CCCC(c2ccccc2OCC(=O)NCC(O)CN2CCc3ccccc3C2)C1` (centres unmarked) [Compound A130]: the IC50 under setting [1] is below 100 nM.
Regarding `O=C(COc1cccc2c1OCC(=O)N2)NCC(O)CN1CCc2ccccc2C1` (centres unmarked) [Compound A124], the IC50 under setting [1] was in the range of 1000 to 10000 nM.
Consider `O=C(COc1ccccc1C1CCCCC1)NCC(O)CN1CCc2ccccc2C1` (centres unmarked) [Compound A40], for which the IC50 under setting [1] was below 100 nM.
Same read-out and setting: the same measure for `COc1ccccc1OCC(=O)NCC(O)CN1CCc2ccccc2C1` (centres unmarked) [Compound A22]: below 100 nM; for `CC(=O)Nc1ccccc1OCC(=O)NCC(O)CN1CCc2ccccc2C1` (centres unmarked) [Compound A36]: 101 to 1000 nM.
Take `CN(C)c1cccc(OCC(=O)NCC(O)CN2CCc3ccccc3C2)c1` (centres unmarked) [Compound A27]: the IC50 under setting [1] is below 100 nM.
On the same count and under the same terms, in the case of `CN1CCC(n2cnc3ccc(OCC(=O)NCC(O)CN4CCc5ccccc5C4)cc32)CC1` (centres unmarked) [Compound A71] it was below 100 nM; in that of `O=C(COc1cccc(F)c1)NCC(O)CN1CCc2ccccc2C1` (centres unmarked) [Compound A7], 101 to 1000 nM; in that of `CC(Oc1cccc2cccnc12)C(=O)NCC(O)CN1CCc2ccccc2C1` (centres unmarked) [Compound A39], below 100 nM.
As for `O=C(COc1cccc2cccnc12)NC[C@@H](O)CN1CCc2ccccc2C1` [Compound A45], the IC50 (Biochemical IC50) is below 100 nM.
As for `N#Cc1cccc(OCC(=O)NCC(O)CN2CCc3ccccc3C2)c1` (centres unmarked) [Compound A8], under setting [1], the IC50 was in the range of 101 to 1000 nM.
The same measure, in the same setting: in the case of `CS(=O)(=O)N1CCc2c(cccc2OCC(=O)NCC(O)CN2CCc3ccccc3C2)C1` (centres unmarked) [Compound A102] it was below 100 nM; in that of `CS(=O)(=O)Nc1ccc(OCC(=O)NCC(O)CN2CCc3ccccc3C2)cc1` (centres unmarked) [Compound A42], 101 to 1000 nM.
As to `CN(C)c1ncccc1OCC(=O)NCC(O)CN1CCc2ccccc2C1` (centres unmarked) [Compound A127], the IC50 under setting [1] was 101 to 1000 nM.
Turning to `O=C(COc1cccc2cccnc12)NCC(O)CN1CCc2ccccc2C1` (centres unmarked) [Compound A6], under “Biochemical IC50”, the IC50 was below 100 nM.
Consider `NS(=O)(=O)c1ccccc1OCC(=O)NCC(O)CN1CCc2ccccc2C1` (centres unmarked) [Compound A65], for which, under setting [1], the IC50 was below 100 nM.
Consider `Cn1cc2c(OCC(=O)NCC(O)CN3CCc4ccccc4C3)cccc2n1` (centres unmarked) [Compound A118], for which, under setting [1], the IC50 was 101 to 1000 nM.
`Cc1ccccc1OCC(=O)NCC(O)CN1CCc2ccccc2C1` (centres unmarked) [Compound A15]: the IC50 under setting [1] was 101 to 1000 nM.
As to `CC(=O)N1CCN(S(=O)(=O)c2ccccc2OCC(=O)NCC(O)CN2CCc3ccccc3C2)CC1` (centres unmarked) [Compound A122], the IC50 under setting [1] was 101 to 1000 nM.
For `O=C(COc1ccccc1S(=O)(=O)N1CCCC1)NCC(O)CN1CCc2ccccc2C1` (centres unmarked) [Compound A110], the IC50 under setting [1] is below 100 nM.
Take `C[C@@H](Oc1cccc2cccnc12)C(=O)NC[C@H](O)CN1CCc2ccccc2C1` [Compound A73]: the IC50 under setting [1] was below 100 nM.
With `O=C(COc1cccc2ncc(=O)[nH]c12)NCC(O)CN1CCc2ccccc2C1` (centres unmarked) [Compound A129], the IC50 under setting [1] lay within 101 to 1000 nM.
For `CN1CCc2c(cccc2OCC(=O)NCC(O)CN2CCc3ccccc3C2)C1` (centres unmarked) [Compound A99], the IC50 under setting [1] is below 100 nM.
`CC(=O)Nc1cccc(OCC(=O)NCC(O)CN2CCc3ccccc3C2)c1` (centres unmarked) [Compound A31]: under setting [1], the IC50 lay within 1000 to 10000 nM.
On to `CS(=O)(=O)c1ccccc1OCC(=O)NCC(O)CN1CCc2ccccc2C1` (centres unmarked) [Compound A37], for which the IC50 under setting [1] was below 100 nM.
As for `O=C(COc1ccccc1N1CCOCC1)NCC(O)CN1CCc2ccccc2C1` (centres unmarked) [Compound A49], under setting [1], the IC50 is below 100 nM.
Same read-out and setting: the same measure for `O=C(COc1ccccc1S(=O)(=O)N1CCNCC1)NCC(O)CN1CCc2ccccc2C1` (centres unmarked) [Compound A107]: below 100 nM; for `O=C(COc1cccc2c1OCCO2)NCC(O)CN1CCc2ccccc2C1` (centres unmarked) [Compound A100]: below 100 nM; for `O=C(CNc1ccccc1)NCC(O)CN1CCc2ccccc2C1` (centres unmarked) [Compound A18]: 1000 to 10000 nM.
As for `Cc1ccc(OCC(=O)NCC(O)CN2CCc3ccccc3C2)cc1` (centres unmarked) [Compound A9], under setting [1], the IC50 was 101 to 1000 nM.
With `COc1ccc2cccc(OCC(=O)NC[C@@H](O)CN3CCc4ccccc4C3)c2n1` [Compound A98], the IC50 under setting [1] was below 100 nM.
The same measure, in the same setting: the same measure for `CC(=O)N1CCc2c(cccc2OCC(=O)NCC(O)CN2CCc3ccccc3C2)C1` (centres unmarked) [Compound A101]: below 100 nM; for `Cn1ncc2ccc(OCC(=O)NCC(O)CN3CCc4ccccc4C3)cc21` (centres unmarked) [Compound A23]: below 100 nM; for `O=C(COc1ccccc1)NC[C@H](O)CN1CCc2ccccc2C1` [Compound A32]: 101 to 1000 nM.
Take `C[C@@H](Oc1cccc2cccnc12)C(=O)NC[C@@H](O)CN1CCc2ccccc2C1` [Compound A74]: under setting [1], the IC50 is below 100 nM.
`CN1CCc2cccc(OCC(=O)NCC(O)CN3CCc4ccccc4C3)c2C1` (centres unmarked) [Compound A120]: under setting [1], the IC50 was in the range of 101 to 1000 nM.
Take `COc1ccc2cccc(OCC(=O)NC[C@H](O)CN3CCc4ccccc4C3)c2n1` [Compound A97]: the IC50 under setting [1] was in the range of 101 to 1000 nM.
Same read-out and setting: in the case of `O=C(COc1ccccc1C1CCNCC1)NCC(O)CN1CCc2ccccc2C1` (centres unmarked) [Compound A103] it was below 100 nM; in that of `O=C(COc1cccc2c1CCCC2)NCC(O)CN1CCc2ccccc2C1` (centres unmarked) [Compound A64], below 100 nM; in that of `Cn1cnc2cc(OCC(=O)NCC(O)CN3CCc4ccccc4C3)ccc21` (centres unmarked) [Compound A46], 101 to 1000 nM.
As to `CNC(=O)c1ccccc1OCC(=O)NCC(O)CN1CCc2ccccc2C1` (centres unmarked) [Compound A112], under setting [1], the IC50 fell in the range of 101 to 1000 nM.
Turning to `CN(c1cccc(OCC(=O)NCC(O)CN2CCc3ccccc3C2)c1)S(C)(=O)=O` (centres unmarked) [Compound A142], the half-inhibitory concentration (IC50) under setting [1] fell in the range of 101 to 1000 nM.
Consider `COc1ccc(OCC(=O)NCC(O)CN2CCc3ccccc3C2)cc1` (centres unmarked) [Compound A12], for which the IC50 under setting [1] is 101 to 1000 nM.
`CS(=O)(=O)Nc1ccccc1OCC(=O)NCC(O)CN1CCc2ccccc2C1` (centres unmarked) [Compound A53]: the IC50 under setting [1] was below 100 nM.
For `CN(C)c1ccccc1OCC(=O)NCC(O)CN1CCc2ccccc2C1` (centres unmarked) [Compound A38], the concentration for half-maximal inhibition (IC50) under setting [1] is below 100 nM.
In the case of `CN1CCC(n2ncc3cc(OCC(=O)NCC(O)CN4CCc5ccccc5C4)ccc32)C1` (centres unmarked) [Compound A96], under setting [1], the IC50 is below 100 nM.
On the same count and under the same terms, in the case of `CC(Oc1ccccc1)C(=O)NCC(O)CN1CCc2ccccc2C1` (centres unmarked) [Compound A19] it was below 100 nM; in that of `CN1CCC(c2ccccc2OCC(=O)NCC(O)CN2CCc3ccccc3C2)CC1` (centres unmarked) [Compound A134], 101 to 1000 nM.
As to `CN(C)c1ccc(OCC(=O)NCC(O)CN2CCc3ccccc3C2)cc1` (centres unmarked) [Compound A35], the IC50 under setting [1] lay within 101 to 1000 nM.
Take `CN1CCN(S(=O)(=O)c2ccccc2OCC(=O)NCC(O)CN2CCc3ccccc3C2)CC1` (centres unmarked) [Compound A108]: the half-inhibitory concentration (IC50) under setting [1] was below 100 nM.
On to `NC(=O)c1cccc(OCC(=O)NCC(O)CN2CCc3ccccc3C2)c1` (centres unmarked) [Compound A34], for which the IC50 under setting [1] lay in the range of 101 to 1000 nM.
Regarding `N#Cc1ccccc1OCC(=O)NCC(O)CN1CCc2ccccc2C1` (centres unmarked) [Compound A17], the IC50 under setting [1] lay in the range of 101 to 1000 nM.
The same measure, in the same setting: the same measure for `O=C(COc1cccc2ccc(N3CCOCC3)nc12)NCC(O)CN1CCc2ccccc2C1` (centres unmarked) [Compound A48]: below 100 nM; for `O=C(COc1cccc2ccccc12)NCC(O)CN1CCc2ccccc2C1` (centres unmarked) [Compound A66]: below 100 nM; for `O=C(COc1ccccc1C1CCCNC1)NCC(O)CN1CCc2ccccc2C1` (centres unmarked) [Compound A117]: 101 to 1000 nM.
In the case of `CN(C)c1ccc2cccc(OCC(=O)NC[C@@H](O)CN3CCc4ccccc4C3)c2n1` [Compound A105], the IC50 under setting [1] is below 100 nM.
For the compound `CC(C)(Oc1cccc2cccnc12)C(=O)NCC(O)CN1CCc2ccccc2C1` (centres unmarked) [Compound A43], the IC50 under setting [1] was below 100 nM.
Turning to `O=C(COc1cccc2cccnc12)NC[C@H](O)CN1CCc2ccccc2C1` [Compound A44], the IC50 (Biochemical IC50) was in the range of 101 to 1000 nM.
With `O=C(COc1cccc2c1CNCC2)NCC(O)CN1CCc2ccccc2C1` (centres unmarked) [Compound A119], the IC50 under setting [1] is below 100 nM.
For `CS(=O)(=O)Nc1cccc(OCC(=O)NCC(O)CN2CCc3ccccc3C2)c1` (centres unmarked) [Compound A28], the IC50 under setting [1] was below 100 nM.
Take `O=C(COc1ccccc1-c1cc[nH]n1)NCC(O)CN1CCc2ccccc2C1` (centres unmarked) [Compound A50]: the IC50 under setting [1] was below 100 nM.
Take `N#Cc1ccc(OCC(=O)NCC(O)CN2CCc3ccccc3C2)cc1` (centres unmarked) [Compound A11]: the IC50 under setting [1] was 101 to 1000 nM.
For the compound `NC(=O)c1ccccc1OCC(=O)NCC(O)CN1CCc2ccccc2C1` (centres unmarked) [Compound A29], the IC50 under setting [1] fell in the range of 101 to 1000 nM.
`CS(=O)(=O)c1cccc(OCC(=O)NCC(O)CN2CCc3ccccc3C2)c1` (centres unmarked) [Compound A47]: the IC50 under setting [1] was below 100 nM.
For the compound `O=C(COc1ccccc1S(=O)(=O)N1CCC(O)C1)NCC(O)CN1CCc2ccccc2C1` (centres unmarked) [Compound A111], under setting [1], the IC50 was below 100 nM.
Same read-out and setting: the same measure for `CC(=O)Nc1ccc(OCC(=O)NCC(O)CN2CCc3ccccc3C2)cc1` (centres unmarked) [Compound A21]: 101 to 1000 nM.
As to `O=C(COc1ccccc1C1CCNC1)NCC(O)CN1CCc2ccccc2C1` (centres unmarked) [Compound A116], the IC50 under setting [1] lay in the range of 1000 to 10000 nM.
For `CN(C)C(=O)c1ccccc1OCC(=O)NCC(O)CN1CCc2ccccc2C1` (centres unmarked) [Compound A113], under setting [1], the IC50 fell in the range of 101 to 1000 nM.
As to `O=C(COc1ccccc1-c1ncc[nH]1)NCC(O)CN1CCc2ccccc2C1` (centres unmarked) [Compound A137], the IC50 under setting [1] lay within 101 to 1000 nM.
For the compound `CS(=O)(=O)N1CCN(c2ccccc2OCC(=O)NCC(O)CN2CCc3ccccc3C2)CC1` (centres unmarked) [Compound A106], under setting [1], the IC50 lay within 101 to 1000 nM.
As for `CNS(=O)(=O)c1ccccc1OCC(=O)NCC(O)CN1CCc2ccccc2C1` (centres unmarked) [Compound A123], under setting [1], the IC50 is below 100 nM.
Turning to `O=C(COc1ccccc1-c1cc[nH]n1)NC[C@@H](O)CN1CCc2ccccc2C1` [Compound A67], under setting [1], the IC50 was below 100 nM.

As usually defined, the IC50 is the concentration that gives 50% inhibition.

The values are drawn from patent publication US20150344457A1, “METHODS OF INHIBITING PRMT5” (EPIZYME, INC., priority 2012, published 2015).
